Where “and” joins values, the source holds several entries; their conditions need not be identical. Equal values may be shown once. Inconclusive results and toxic doses are left out. How the source made its calls: active means survival T/C of 150% or more; inactive means T/C below 125% in these data.
System: CD2F1 mice, L1210 leukemia ip, survival T/C
Assay: NCI In Vivo Anticancer Drug Screen. Data for tumor model L1210 Leukemia (intraperitoneal) in CD2F1 (CDF1) mice
Conditions: higher = longer survival
Summary of the method: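 Mice carrying a transplanted tumor received test compound or vehicle alone. The value is the measurement in the treated group divided by that in the vehicle-treated control group.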

[1] = endpoint: mean survival time, dose: 100.0 mg/kg/injection, schedule: Q04DX003 (ip), vehicle: saline
[2] = endpoint: mean survival time, dose: 200.0 mg/kg/injection, schedule: Q04DX003 (ip), vehicle: saline
[3] = endpoint: mean survival time, dose: 100.0 mg/kg/injection, schedule: Q04DX003 (ip), vehicle: saline with Tween-80
[4] = endpoint: mean survival time, dose: 200.0 mg/kg/injection, schedule: Q04DX003 (ip), vehicle: saline with Tween-80
[5] = endpoint: mean survival time, dose: 400.0 mg/kg/injection, schedule: Q04DX003 (ip), vehicle: saline with Tween-80
[6] = endpoint: mean survival time, dose: 100.0 mg/kg/injection, schedule: Q01DX001 (ip), vehicle: saline
[7] = endpoint: mean survival time, dose: 200.0 mg/kg/injection, schedule: Q01DX001 (ip), vehicle: saline
[8] = endpoint: mean survival time, dose: 400.0 mg/kg/injection, schedule: Q01DX001 (ip), vehicle: saline
[9] = endpoint: mean survival time, dose: 100.0 mg/kg/injection, schedule: Q04DX003 (ip), vehicle: saline sonified
[10] = endpoint: mean survival time, dose: 200.0 mg/kg/injection, schedule: Q04DX003 (ip), vehicle: saline sonified
[11] = endpoint: mean survival time, dose: 400.0 mg/kg/injection, schedule: Q04DX003 (ip), vehicle: saline sonified
[12] = endpoint: mean survival time, dose: 6.25 mg/kg/injection, schedule: Q01DX009 (ip), vehicle: saline with Tween-80
[13] = endpoint: mean survival time, dose: 12.5 mg/kg/injection, schedule: Q01DX009 (ip), vehicle: saline with Tween-80
[14] = endpoint: mean survival time, dose: 25.0 mg/kg/injection, schedule: Q01DX009 (ip), vehicle: saline with Tween-80
[15] = endpoint: mean survival time, dose: 50.0 mg/kg/injection, schedule: Q01DX009 (ip), vehicle: saline with Tween-80
[16] = endpoint: mean survival time, dose: 100.0 mg/kg/injection, schedule: Q01DX009 (ip), vehicle: saline with Tween-80
[17] = endpoint: mean survival time, dose: 200.0 mg/kg/injection, schedule: Q01DX009 (ip), vehicle: saline with Tween-80
[18] = endpoint: mean survival time, dose: 400.0 mg/kg/injection, schedule: Q01DX009 (ip), vehicle: saline with Tween-80

Measured: T/C

OCCN(CCO)c1ccc(O)cc1
inactive: endpoint: mean survival time, dose: 5.0 mg/kg/injection, schedule: Q01DX001 (ip), vehicle: saline 92 % of control | endpoint: mean survival time, dose: 10.0 mg/kg/injection, schedule: Q01DX001 (ip), vehicle: saline 92 % of control | endpoint: mean survival time, dose: 20.0 mg/kg/injection, schedule: Q01DX001 (ip), vehicle: saline 92 % of control | endpoint: mean survival time, dose: 40.0 mg/kg/injection, schedule: Q01DX001 (ip), vehicle: saline 92 % of control | endpoint: mean survival time, dose: 75.0 mg/kg/injection, schedule: Q01DX001 (ip), vehicle: saline 103 % of control | endpoint: mean survival time, dose: 150.0 mg/kg/injection, schedule: Q01DX001 (ip), vehicle: saline 101 % of control

O=P(O)(c1ccccc1Br)c1ccccc1Br
inactive: endpoint: mean survival time, dose: 50.0 mg/kg/injection, schedule: Q04DX003 (ip), vehicle: saline 101 % of control | [1] 97 % of control | [2] 94 % of control

COc1ccc(C(C#N)C(CC(=O)c2ccccc2)c2ccccc2)cc1 (stereo not drawn)
inactive: endpoint: mean survival time, dose: 100.0 mg/kg/injection, schedule: Q04DX002 (ip), vehicle: saline with Tween-80 98 % of control | endpoint: mean survival time, dose: 200.0 mg/kg/injection, schedule: Q04DX002 (ip), vehicle: saline with Tween-80 91 % of control | endpoint: mean survival time, dose: 400.0 mg/kg/injection, schedule: Q04DX002 (ip), vehicle: saline with Tween-80 87 % of control

COC12CC3C4CCC5CC(O)CCC5(C)C4CCC3(C)C1C(C)C1(CCC(C)CO1)O2 (stereo not drawn)
inactive: [3] 100 % of control | [4] 96 % of control | [5] 92 % of control

CN1C(=O)/C(=C/c2cccs2)SC1=S
inactive: [6] 95 % of control | [7] 98 % of control | [8] 103 % of control

CN=C(NC)c1cccc(NC(=O)/C=C\c2ccc(/C=C/C(=O)Nc3cccc(C(=NC)NC)c3)cc2)c1
inactive: endpoint: median survival time, dose: 1.25 mg/kg/injection, schedule: Q01DX009 (ip), vehicle: saline 101 % of control | endpoint: median survival time, dose: 2.5 mg/kg/injection, schedule: Q01DX009 (ip), vehicle: saline 107 % of control | endpoint: median survival time, dose: 5.0 mg/kg/injection, schedule: Q01DX009 (ip), vehicle: saline 101 % of control

O=C(O)CNC(=O)C(CN1CC(=O)OC1c1ccc([N+](=O)[O-])cc1)N1C(=O)c2ccccc2C1=O (stereo not drawn)
inactive: [9] 92 % of control | [10] 88 % of control | [11] 92 % of control

O=C(O)CCC(=O)c1ccc2c(c1)CCCC2
inactive: endpoint: mean survival time, dose: 1.56 mg/kg/injection, schedule: Q04DX002 (ip), vehicle: saline with Tween-80 97 % of control | endpoint: mean survival time, dose: 3.13 mg/kg/injection, schedule: Q04DX002 (ip), vehicle: saline with Tween-80 97 % of control | endpoint: mean survival time, dose: 6.25 mg/kg/injection, schedule: Q04DX002 (ip), vehicle: saline with Tween-80 97 % of control | endpoint: mean survival time, dose: 12.5 mg/kg/injection, schedule: Q04DX002 (ip), vehicle: saline with Tween-80 104 % of control

Cc1c(N=[N+]=[N-])c(NS(=O)(=O)c2ccccc2)c(C)c(N=[N+]=[N-])c1NS(=O)(=O)c1ccccc1
inactive: [3] 96 % of control | [4] 93 % of control | [5] 93 % of control

CC(NC(=O)NCCCl)c1ccccc1 (stereo not drawn)
inactive: endpoint: mean survival time, dose: 25.0 mg/kg/injection, schedule: Q01DX009 (ip), vehicle: saline 88 % of control | endpoint: mean survival time, dose: 50.0 mg/kg/injection, schedule: Q01DX009 (ip), vehicle: saline 86 % of control

NC(=S)N/N=C/c1cc(-c2cccc(N)c2)ccn1
inactive: [12] 113 % of control | endpoint: mean survival time, dose: 9.4 mg/kg/injection, schedule: Q01DX009 (ip), vehicle: saline with Tween-80 116 % of control and 104 % of control | [13] 115 % of control | endpoint: mean survival time, dose: 18.8 mg/kg/injection, schedule: Q01DX009 (ip), vehicle: saline with Tween-80 115 % of control and 118 % of control | [14] 123 % of control | endpoint: mean survival time, dose: 37.5 mg/kg/injection, schedule: Q01DX009 (ip), vehicle: saline with Tween-80 115 % of control and 119 % of control | endpoint: mean survival time, dose: 75.0 mg/kg/injection, schedule: Q01DX009 (ip), vehicle: saline with Tween-80 89 % of control and 104 % of control and 107 % of control

CCOC(=O)/C(C#N)=C\c1cccs1
inactive: endpoint: mean survival time, dose: 25.0 mg/kg/injection, schedule: Q04DX003 (ip), vehicle: Klucel (hydroxypropylcellulose) (HPC) 96 % of control | endpoint: mean survival time, dose: 50.0 mg/kg/injection, schedule: Q04DX003 (ip), vehicle: Klucel (hydroxypropylcellulose) (HPC) 96 % of control | endpoint: mean survival time, dose: 100.0 mg/kg/injection, schedule: Q04DX003 (ip), vehicle: Klucel (hydroxypropylcellulose) (HPC) 107 % of control

O=C(Nc1cccc2ccccc12)OCCCBr
inactive: endpoint: mean survival time, dose: 3.13 mg/kg/injection, schedule: Q01DX009 (ip), vehicle: saline with Tween-80 97 % of control | [12] 103 % of control | [13] 94 % of control and 101 % of control | [15] 86 % of control

COc1nc(NC2OC(CO)C(O)C(O)C2O)cc(=O)[nH]1 (stereo not drawn)
inactive: endpoint: median survival time, dose: 12.5 mg/kg/injection, schedule: Q01DX005 (ip), vehicle: saline 105 % of control | endpoint: median survival time, dose: 25.0 mg/kg/injection, schedule: Q01DX005 (ip), vehicle: saline 97 % of control | endpoint: median survival time, dose: 50.0 mg/kg/injection, schedule: Q01DX005 (ip), vehicle: saline 100 % of control | endpoint: median survival time, dose: 100.0 mg/kg/injection, schedule: Q01DX005 (ip), vehicle: saline 100 % of control | endpoint: median survival time, dose: 200.0 mg/kg/injection, schedule: Q01DX005 (ip), vehicle: saline 102 % of control

CCC1(CCC#N)CCC(N)=CC1=O (stereo not drawn)
inactive: [3] 104 % of control | [4] 95 % of control | [5] 101 % of control

Clc1ccc(COCc2ccccc2Cn2ccnc2)cc1
inactive: [14] 98 % of control | [15] 104 % of control | [16] 96 % of control and 105 % of control

C/C(=N\O)C1(C)CC=CCC1C(=O)O (stereo not drawn)
inactive: [16] 90 % of control | [3] 100 % of control | [17] 93 % of control | [4] 96 % of control | [18] 94 % of control | [5] 94 % of control

O=C(Nc1cc(C(F)(F)F)ccc1Cl)c1cccc(Cl)c1
inactive: [16] 95 % of control | [3] 102 % of control | [17] 98 % of control | [4] 93 % of control | [18] 98 % of control | [5] 94 % of control

COc1ccc(C(=O)CC(C(=O)O)c2ccc(OC)c(OC)c2)cc1OC (stereo not drawn)
inactive: [3] 98 % of control | [4] 102 % of control | [5] 91 % of control

O=S(=O)(NCCNS(=O)(=O)c1ccccc1)c1ccccc1
inactive: endpoint: mean survival time, dose: 100.0 mg/kg/injection, schedule: Q01DX001 (ip), vehicle: saline with Tween-80 110 % of control | endpoint: mean survival time, dose: 200.0 mg/kg/injection, schedule: Q01DX001 (ip), vehicle: saline with Tween-80 95 % of control | endpoint: mean survival time, dose: 400.0 mg/kg/injection, schedule: Q01DX001 (ip), vehicle: saline with Tween-80 100 % of control

CN(C)C(c1ccccc1)P(=O)(O)O (stereo not drawn)
inactive: [1] 98 % of control | [2] 101 % of control | endpoint: mean survival time, dose: 400.0 mg/kg/injection, schedule: Q04DX003 (ip), vehicle: saline 98 % of control

N#CC(C(=O)c1ccccc1)c1ccccc1 (stereo not drawn)
inactive: endpoint: mean survival time, dose: 75.0 mg/kg/injection, schedule: Q01DX001 (ip), vehicle: other 100 % of control | endpoint: mean survival time, dose: 150.0 mg/kg/injection, schedule: Q01DX001 (ip), vehicle: other 101 % of control | endpoint: mean survival time, dose: 300.0 mg/kg/injection, schedule: Q01DX001 (ip), vehicle: other 106 % of control

Brc1ccc2ncc3ccccc3c2c1
inactive: [6] 93 % of control | [7] 98 % of control | [8] 96 % of control

ClCCOCCOc1ccc(C2CCCCC2)cc1
inactive: [9] 97 % of control | [10] 97 % of control | [11] 92 % of control

O=c1nc(Sc2ccccc2)ccn1C1OC(CO)C(O)C1O (stereo not drawn)
inactive: endpoint: mean survival time, dose: 12.5 mg/kg/injection, schedule: Q01DX005 (ip), vehicle: distilled water + Tween-80 106 % of control | endpoint: mean survival time, dose: 25.0 mg/kg/injection, schedule: Q01DX005 (ip), vehicle: distilled water + Tween-80 103 % of control | endpoint: mean survival time, dose: 50.0 mg/kg/injection, schedule: Q01DX005 (ip), vehicle: distilled water + Tween-80 106 % of control | endpoint: mean survival time, dose: 100.0 mg/kg/injection, schedule: Q01DX005 (ip), vehicle: distilled water + Tween-80 110 % of control | endpoint: mean survival time, dose: 200.0 mg/kg/injection, schedule: Q01DX005 (ip), vehicle: distilled water + Tween-80 118 % of control

Source: PubChem BioAssay AID256 (DTP/NCI, 2004)
